Test results: article PMC6792352, “Limited Chemical Structural Diversity Found to Modulate Thyroid Hormone Receptor in the Tox21 Chemical Library” (Environmental Health Perspectives, 2019)
Where a name gives a salt, the structure may show the parent alone.

Test: in vitro
Details: rat, gh3-tre-luc cells, AC50 (uM) modified / 1000

**Q.** With S=C=Nc1ccc(N=C=S)cc1 [Bitoscanate] as the compound, how does the CC50 at 24 h read?
**A.** > 50 µM

**Q.** Which CC50 at 24 h does the source give for CO[Si](CCCS)(OC)OC [3-Mercaptopropyltrimethoxysilane] here?
**A.** > 90 µM

**Q.** For BrCc1ccc(Br)cc1 [4-Bromobenzyl bromide], which CC50 at 24 h is on record?
**A.** > 90 µM

**Q.** Which CC50 at 24 h does the source give for CC(C)=CCCC(C)CC=O (stereo not shown) [Citronellal] here?
**A.** > 90 µM

**Q.** Which CC50 at 24 h does the source give for CCOCCOCC [Ethylene glycol diethyl ether] here?
**A.** > 100 µM

**Q.** For CC(=O)C1CCCCC1=O (stereo not shown) [Cyclohexanone,2-acetyl-], which CC50 at 24 h is on record?
**A.** > 90 µM

**Q.** Which CC50 at 24 h does the source give for CCOC(=O)Nc1ccc2c(c1)N(C(=O)CCN1CCOCC1)c1ccccc1S2 [Moricizine hydrochloride] here?
**A.** > 20 µM

**Q.** For CCn1cc(C(=O)O)c(=O)c2cc(F)c(N3CCNC(C)C3)c(F)c21 (stereo not shown) [Lomefloxacin hydrochloride], which CC50 at 24 h is on record?
**A.** > 50 µM

**Q.** For CCCCOC(=O)CCCCCCCCC(=O)OCCCC [Dibutyl decanedioate], which CC50 at 24 h is on record?
**A.** > 90 µM

**Q.** With CCCCCCCOC(C)=O [Heptyl acetate] as the compound, how does the CC50 at 24 h read?
**A.** > 90 µM

**Q.** With CC(C)COCC(CN(Cc1ccccc1)c1ccccc1)N1CCCC1 (stereo not shown) [Bepridil] as the compound, how does the CC50 at 24 h read?
**A.** 9.16 µM

**Q.** With CC(C)(C)OC(=O)c1ccc(O)cc1 [tert-Butyl 4-hydroxybenzoate] as the compound, how does the CC50 at 24 h read?
**A.** > 90 µM

**Q.** Which CC50 at 24 h does the source give for Cc1ccccc1CNc1ncnc2c1ncn2[C@@H]1O[C@H](CO)[C@@H](O)[C@H]1O [Metrifudil] here?
**A.** > 50 µM

**Q.** For CCC1(C)CC(=O)NC1=O (stereo not shown) [Ethosuximide], which CC50 at 24 h is on record?
**A.** > 50 µM

**Q.** For COc1ccc(NC(C)=O)cc1N [N-(3-Amino-4-methoxyphenyl)acetamide], which CC50 at 24 h is on record?
**A.** > 90 µM

**Q.** Which CC50 at 24 h does the source give for CCC1(c2cnc[nH]2)Cc2ccccc2C1 [Atipamezole hydrochloride] here?
**A.** > 50 µM

**Q.** Which CC50 at 24 h does the source give for CC/C=C\CCO [(Z)-3-Hexen-1-ol] here?
**A.** > 90 µM

**Q.** For Nc1nnnn1-c1ccccc1 [Fenamol], which CC50 at 24 h is on record?
**A.** > 50 µM

**Q.** For CCCn1cnc2c1c(=O)n(CCCCC(C)=O)c(=O)n2C [Propentofylline], which CC50 at 24 h is on record?
**A.** > 50 µM

**Q.** For CCCCCCCCC1CO1 (stereo not shown) [1,2-Epoxydecane], which CC50 at 24 h is on record?
**A.** > 90 µM

**Q.** Which CC50 at 24 h does the source give for OC[C@@H](O)[C@H](O)[C@H](O)[C@@H](O)CO [D-Galactitol] here?
**A.** > 50 µM

**Q.** Which CC50 at 24 h does the source give for O=C1C(O)=C([C@H]2CC[C@H](c3ccc(Cl)cc3)CC2)C(=O)c2ccccc21 [Atovaquone] here?
**A.** 8.49 µM

**Q.** Which CC50 at 24 h does the source give for CC(C)(C)OC(=O)c1cccc(N)c1 [tert-Butyl-3-aminobenzoate] here?
**A.** > 90 µM

**Q.** For CN(C)CCC(O)(c1ccccc1)c1ccccc1Cl (stereo not shown) [Chlophedianol], which CC50 at 24 h is on record?
**A.** 26 µM

**Q.** Which CC50 at 24 h does the source give for CC(=O)/C=C/C1C(C)=CCCC1(C)C (stereo not drawn) [alpha-Ionone] here?
**A.** > 90 µM

**Q.** For CCO[Si](CCC1CCC2OC2C1)(OCC)OCC (stereo not shown) [Triethoxy[2-(7-oxabicyclo[4.1.0]hept-3-yl)ethyl]silane], which CC50 at 24 h is on record?
**A.** > 90 µM

**Q.** For CC(C)(C)NC[C@H](O)c1ccc(O)cc1Cl [Meluadrine], which CC50 at 24 h is on record?
**A.** > 50 µM

**Q.** Which CC50 at 24 h does the source give for CCOC(=O)CS [Acetic acid,mercapto-,ethylester] here?
**A.** > 90 µM

**Q.** For Cc1c(O)cc2c(c1C)O[C@](C)(CCC[C@H](C)CCC[C@H](C)CCCC(C)C)CC2 [(+)-gamma-Tocopherol], which CC50 at 24 h is on record?
**A.** > 50 µM

**Q.** For O=C(O)c1ccccc1Nc1cccc(C(F)(F)F)c1 [Flufenamic acid], which CC50 at 24 h is on record?
**A.** > 50 µM

**Q.** With CCC(C)(C)c1ccc(O)cc1 [4-(2-Methylbutan-2-yl)phenol] as the compound, how does the CC50 at 24 h read?
**A.** > 90 µM

**Q.** Which CC50 at 24 h does the source give for CCCCCCCCCCOS(=O)(=O)O [Sodium decyl sulfate] here?
**A.** > 90 µM

**Q.** With C=CC(=O)OCCOCCOC(=O)C=C [Diethylene glycol diacrylate] as the compound, how does the CC50 at 24 h read?
**A.** 21.6 µM

**Q.** For Cc1cc(C)nc(NS(=O)(=O)c2ccc(N)cc2)n1 [Sulfamethazine], which CC50 at 24 h is on record?
**A.** > 90 µM

**Q.** With Cc1c(Cl)cccc1Cl [2,6-Dichlorotoluene] as the compound, how does the CC50 at 24 h read?
**A.** > 90 µM

**Q.** Which CC50 at 24 h does the source give for CC(O)CO (stereo not shown) [1,2-Propylene glycol] here?
**A.** > 90 µM

**Q.** For CCN(CC)CCNC(=O)c1cc(Cl)c(N)cc1OC [Metoclopramide], which CC50 at 24 h is on record?
**A.** > 50 µM

**Q.** With CCC(=O)C=CC1C(C)=CCCC1(C)C (stereo not shown) [1-(2,6,6-Trimethyl-2-cyclohexen-1-yl)-1-penten-3-one] as the compound, how does the CC50 at 24 h read?
**A.** > 90 µM

**Q.** Which CC50 at 24 h does the source give for NCCNCCN [Diethylenetriamine] here?
**A.** > 90 µM

**Q.** For CC1=C[C@H](O)CC(C)(C)[C@H]1/C=C/C(C)=C/C=C/C(C)=C/C=C/C=C(C)/C=C/C=C(C)/C=C/C1=C(C)C[C@@H](O)CC1(C)C [Lutein], which CC50 at 24 h is on record?
**A.** 28.4 µM

**Q.** For CN1C(C(=O)Nc2ccccn2)=C(O)c2sccc2S1(=O)=O [Tenoxicam], which CC50 at 24 h is on record?
**A.** > 20 µM

**Q.** For CC(=O)CC(=O)OC(C)(C)C [tert-Butyl 3-oxobutanoate], which CC50 at 24 h is on record?
**A.** > 90 µM

**Q.** Which CC50 at 24 h does the source give for COC(=O)c1ccccc1S(=O)(=O)NC(=O)Nc1nc(C)nc(OC)n1 [Metsulfuron-methyl] here?
**A.** > 90 µM

**Q.** For O=C(CC(C(=O)OC1CCCCC1)S(=O)(=O)O)OC1CCCCC1 (stereo not shown) [Dicyclohexyl sodium sulfosuccinate], which CC50 at 24 h is on record?
**A.** > 90 µM

**Q.** For O=C1CCCCC1C1CCCCC1 (stereo not shown) [1,1'-Bi(cyclohexyl)-2-one], which CC50 at 24 h is on record?
**A.** > 90 µM

**Q.** For COc1nn(C(=O)NS(=O)(=O)c2ccccc2OC(F)(F)F)c(=O)n1C [Flucarbazone-sodium], which CC50 at 24 h is on record?
**A.** > 90 µM

**Q.** With CCCCCCCCCCCCN(CCCCCCCCCCCC)CCCCCCCCCCCC [Tridodecylamine] as the compound, how does the CC50 at 24 h read?
**A.** > 90 µM

**Q.** For CC(C)C(=O)OC(=O)C(C)C [Isobutyric anhydride], which CC50 at 24 h is on record?
**A.** > 90 µM

**Q.** For O=C(NC(=O)c1c(F)cccc1F)Nc1cc(Cl)c(F)c(Cl)c1F [Teflubenzuron], which CC50 at 24 h is on record?
**A.** > 80 µM

**Q.** For NS(=O)(=O)c1cc2c(cc1Cl)NC(C(Cl)Cl)NS2(=O)=O (stereo not shown) [Trichlormethiazide], which CC50 at 24 h is on record?
**A.** > 20 µM

**Q.** With c1c[nH]cn1 [Imidazole] as the compound, how does the CC50 at 24 h read?
**A.** > 100 µM

**Q.** For O=C(O)c1c(Cl)c(Cl)c(Cl)c(Cl)c1-c1c2cc(I)c(=O)c(I)c-2oc2c(I)c(O)c(I)cc12 [Rose bengal sodium], which CC50 at 24 h is on record?
**A.** 20.9 µM

**Q.** For CCCCCCCCCCCCCCCCC [Heptadecane], which CC50 at 24 h is on record?
**A.** > 90 µM

**Q.** Which CC50 at 24 h does the source give for O=C(O)c1ccc(O)cc1O [2,4-Dihydroxybenzoic acid] here?
**A.** > 90 µM

**Q.** With O=C(O)Cc1ccc(CCNS(=O)(=O)c2ccc(Cl)cc2)cc1 [Daltroban] as the compound, how does the CC50 at 24 h read?
**A.** > 50 µM

**Q.** Which CC50 at 24 h does the source give for C=CC(=O)OCCCCCC(C)C [Isooctyl acrylate] here?
**A.** > 100 µM

**Q.** For CCCc1ccccc1O [2-Propylphenol], which CC50 at 24 h is on record?
**A.** > 90 µM

**Q.** With FC(F)(F)C(F)(F)C(F)(F)C(F)(F)C(F)(F)F [Perflenapent] as the compound, how does the CC50 at 24 h read?
**A.** > 50 µM

**Q.** With C/C=C/C=N/NC(=O)c1ccncc1 [Crotoniazide] as the compound, how does the CC50 at 24 h read?
**A.** > 50 µM

**Q.** For COc1ccc(C(C)=O)cc1 [4'-Methoxyacetophenone], which CC50 at 24 h is on record?
**A.** > 90 µM

**Q.** For CC(C)(C)C(=O)Cl [2,2-Dimethylpropanoyl chloride], which CC50 at 24 h is on record?
**A.** > 90 µM

**Q.** Which CC50 at 24 h does the source give for CCCC(CCC)C(=O)O [Valproic acid] here?
**A.** > 90 µM

**Q.** For CCO[Si](C)(CCCOCC1CO1)OCC (stereo not shown) [Diethoxy(methyl)[3-(oxiran-2-ylmethoxy)propyl]silane], which CC50 at 24 h is on record?
**A.** > 90 µM

**Q.** For CCCCCCCCCCCC(=O)OC [Methyl dodecanoate], which CC50 at 24 h is on record?
**A.** > 90 µM

**Q.** With Nc1nc(N)nc(-c2ccccc2)n1 [6-Phenyl-1,3,5-triazine-2,4-diamine] as the compound, how does the CC50 at 24 h read?
**A.** > 90 µM

Same assay, conditions: rat, gh3-tre-luc cells, AC50 (uM) modified / 1000, Tox21_110001=Tox21_111052; viability, 1 nM T3 present, 24 h

**Q.** For COP(=O)(OC)OC=C(Cl)Cl [Dichlorvos], which CC50 at 24 h is on record?
**A.** > 50 µM

Same assay, conditions: rat, gh3-tre-luc cells, AC50 (uM) modified / 1000, Tox21_110001=Tox21_113416; viability, 1 nM T3 present, 24 h

**Q.** With COP(=S)(OC)Oc1cc(Cl)c(Cl)cc1Cl [Fenchlorphos] as the compound, how does the CC50 at 24 h read?
**A.** > 50 µM

Same assay, conditions: rat, gh3-tre-luc cells, AC50 (uM) modified / 1000, Tox21_110001=Tox21_200404; viability, 1 nM T3 present, 24 h

**Q.** Which CC50 at 24 h does the source give for CCC(C)Cl (stereo not shown) [2-Chlorobutane] here?
**A.** > 90 µM

Same assay, conditions: rat, gh3-tre-luc cells, AC50 (uM) modified / 1000, Tox21_110001=Tox21_201090; viability, 1 nM T3 present, 24 h

**Q.** With CC(=O)C(Cl)Cl [1,1-Dichloropropanone] as the compound, how does the CC50 at 24 h read?
**A.** > 90 µM

Same assay, conditions: rat, gh3-tre-luc cells, AC50 (uM) modified / 1000, Tox21_110001=Tox21_201617; viability, 1 nM T3 present, 24 h

**Q.** With COP(=O)(OC)OC=C(Cl)Cl [Dichlorvos] as the compound, how does the CC50 at 24 h read?
**A.** > 90 µM

Same assay, conditions: rat, gh3-tre-luc cells, AC50 (uM) modified / 1000, Tox21_110001=Tox21_201656; viability, 1 nM T3 present, 24 h

**Q.** With O=C1C(Cl)=C(Cl)C(=O)C(Cl)=C1Cl [Chloranil] as the compound, how does the CC50 at 24 h read?
**A.** 12.7 µM

Same assay, conditions: rat, gh3-tre-luc cells, AC50 (uM) modified / 1000, Tox21_110001=Tox21_301334; viability, 1 nM T3 present, 24 h

**Q.** For COP(=S)(OC)Oc1cc(Cl)c(Cl)cc1Cl [Fenchlorphos], which CC50 at 24 h is on record?
**A.** > 90 µM

Same assay, conditions: rat, gh3-tre-luc cells, AC50 (uM) modified / 1000, Tox21_110001=Tox21_303021; viability, 1 nM T3 present, 24 h

**Q.** For O=C1C(Cl)=C(Cl)C(=O)C(Cl)=C1Cl [Chloranil], which CC50 at 24 h is on record?
**A.** 20.3 µM
